{"source": "patent US12233060B2", "about": "“Inhibitors of Ataxia-Telangiectasia Mutated and Rad3-related protein kinase (ATR) for use in methods of treating cancer” (THE INSTITUTE OF CANCER RESEARCH: ROYAL CANCER HOSPITAL, priority 2016, dated 2025)", "assay_type_in_all_cases": "cell-based, human", "key": {"[1]": {"tested_on": "HCT116 ARID1A+/+ and ARID1A−/− cells", "experiment": "Mitotic spreads, chromosomal aberrations", "conditions": "VX-970 1 uM; p=0.0007 Student's t-test", "description": "FIG. 5. ATRi effect on cell cycle progression, chromosomal instability, DNA damage and apoptosis. A. Barchart illustrating G2/M fraction in HCT116 ARID1A^+/+ and ARID1A^−/− cells synchronized in G1/early S phase by double thymidine block and released into fresh media containing DMSO or VX-970 (500 nM). The percentage of cells in G2/M was measured by FACS following PI staining. […] Cells were stained with DAPI. A minimum of 50 anaphases were scored in 3 biological replicate experiments. *p=0.023, Student's t-test. C. Bar chart illustrating frequency of anaphase bridges in TOV21G cells exposed to VX-970 (0.5 uM) or DMSO for 8 hours prior to fixation. Experiment performed as for (B). p=0.006 Student's t-test. D. Mitotic spread images from HCT116 ARID1A^+/+ and ARID1A^−/− cells following exposure to either DMSO or VX-970 (1 uM). Scale bar represents 20 um. E. Bar chart illustrating extent of chromosomal abnormalities in HCT116 ARID1A^+/+ and ARID1A^−/− cells exposed to VX-970 (1 uM). *p<0.05, Student's t-test. F. Western blot illustrating γH2AX in HCT116 ARID1A^+/+ and ARID1A^−/− cells exposed to VX-970 (0.5 uM) for the indicated time prior to cell lyses. G. Bar chart illustrating apoptotic fraction in cells exposed to increasing concentrations of VX-970 for 24 hours. Experiment as per FIG. 3I. H. Western blot illustrating PARP cleavage in HCT116 ARID1A^+/+ and ARID1A^−/− cells exposed to VX-970. […]"}, "HCT116 cells [2]": {"tested_on": "HCT116 cells", "experiment": "VX-970 dose response after siRNA silencing of BAF components", "conditions": "HCT116, 5 days exposure; p<0.0001 ANOVA", "description": "FIG. 6. BAF complex deficiency causes sensitivity to ATR inhibition. A. Schematic of BAF complex composition in human cells. B. VX-970 dose response curves from HCT116 cells transfected with siRNA targeting ARID1B or SMARCA4. 48 hours after transfection cells were exposed to VX-970 for 5 days. Error bars represent SD from triplicate experiments. p<0.0001, ANOVA for siARID1B and siSMARCA4 vs. siCON. C. Western blots illustrating ARID1B and SMARCA4 silencing in experiment (B). D. VX-970 dose response curves from four OCCC cell lines, 3 SMARCA4 wildtype (blue; RMG1, KK and ES2) and 1 SMARCA4 mutant (red; TOV112D). E. Bar chart illustrating surviving fraction after five days VX-970 exposure in HCC1143 and He1a cells transfected with siRNA targeting either SMARCA4 or ARID1A *p<0.05 by Student's t-test compared to siCon. F. Western blot illustrating level of chromatin bound TOP2A in HCT116 cells transfected siRNA targeting ARID1A, ARID1B or SMARCA4. Cells were analysed 48 hours after transfection. G. A model for the proposed mechanism driving the sensitivity of ARID1A-deficient cells to ATRi. […]\nShort-term survival assays were performed in 384-well plates. […] Drug was added 24 h after seeding and cells were continuously exposed to the drug for five days, after which cell viability was estimated using CellTitre-Glo luminescence (Promega). […] Colonies were counted manually. […]"}, "HCT116 cells [3]": {"tested_on": "HCT116 cells", "experiment": "DNA fibre analysis, replication fork speed in HCT116 cells with SS18-SSX1", "conditions": "0.1 μM for two hours", "description": "FIG. 10. ATR inhibitors elicit replication fork stress in SS tumour cells. […] Error bars represent SEM from triplicate experiments. p values were derived from Student's t tests. B. Western blot illustrating PARP1 cleavage in SYO1 cells exposed to VX970 for 24 hours. C. Western blot illustrating H2AX phosphorylation (γH2AX) in SYO1 cells exposed to VX970 (0.1 μM). D. Confocal microspcopy images illustrating H2AX phosphorylation in SYO1 cells exposed to VX970 (0.1 μM, 24 hours). E. Bar chart depicting data from (D). Error bars represent SEM from 100 images. p values were derived from Student's t tests. F. Replication fork speeds in SYO1 cells exposed to 0.1 μM VX970 for two hours. p value was derived from a Student's t test. G. Replication fork speeds in HCT116 cells exposed to 0.1 μM VX970 for two hours in the presence and absence of ectopic expression of a SS18-SSX1 fusion protein. p values were derived from Student's t tests. Expression of SS18-SSX1 or exposure to VX970 reduced fork speed. Combined SS18-SSX1 expression and VX970 exposure enhanced the reduction in fork speed. H and I. FACS plots from SYO1 cells exposed to VX970.\nATRi induced cytotoxicity in tumour cells derived from carcinomas is often associated with an increase in replication fork stress."}}}
{"smiles": "CNCc1ccc(-c2cc(-c3nc(-c4ccc(S(=O)(=O)C(C)C)cc4)cnc3N)on2)cc1", "note": "[VX-970, 5-[4-(Isopropylsulfonyl)phenyl]-3-(3-{4-[(methylamino)methyl]phenyl}-1,2-oxazol-5-yl)-2-pyrazinamine]", "values": [{"measurement": "frequency of chromosomal aberrations in ARID1A−/− cells", "setting": "[1]", "value": "significant enhancement in the frequency of chromosomal aberrations"}, {"measurement": "VX-970 sensitivity after silencing of SMARCA4, ARID1B or SMARCB1", "setting": "HCT116 cells [2]", "value": "enhanced sensitivity"}, {"measurement": "decrease in replication fork speed with SS18-SSX1 expression plus VX970", "setting": "HCT116 cells [3]", "value": "enhanced by the addition of VX970"}]}
